system: Mut6; assay: Cytotox testing (CellTiter-Glo ATP assay) in Mut6 cells; assay type: cell-based, mouse; conditions: Mus musculus, 96 h, Mut6 cells, 4 days, CellTiter-Glo; read-out: Activity in Mut6 [EC50]
Procedure: Mut6 tumor cells were cultured in DMEM/F12 media supplemented by EGF (10 ng/mL), basic FGF (10 ng/mL), heparin (4 ug/mL), glucose (total 21 mM), NaHCO3 (113 μg/mL), Hepes (119 μg/mL), glutamine (2 mM), sodium pyruvate (1 mM), N2 supplement (ThermoFisher Gibco 17502-048, 100×, at 100-fold dilution), B27 supplement (ThermoFisher Gibco 12587-010, 50×, at 100-fold dilution), and penicillin/streptomycin (ThermoFisher, final 1%). Cells were maintained in Ultra-low attachment plate (Corning) as sphere-forming cells. For ATP assays and protein/RNA isolation, cells were plated into 96-well plates or 6-well plated that were coated with poly-lysine (Sigma P6407, 10 μg/mL in PBS, 4 hr at 37° C.) and laminin (ThermoFisher 23017015, ˜5 mg/L in PBS, overnight at 37° C.). MEFs and Astrocytes were cultured in DMEM supplemented with 10% FBS and 1% Penicillin/Streptomycin.
2,000 cells were plated into each well of 96-well plates. About 3 hours later, cells were treated by 12M11, at 800-fold dilution (4 mM stock was diluted into 5 μM final concentration). […] CellTiter-Glo assay (Promega) was performed according to manufacturer's instructions, by adding 20 μL of reagent into each well. Luminescence signal was detected by the PolarStar plate reader (BMG Labtech). Experiments were performed in quadruplicate, and results are presented with mean average −/+ standard deviation. EC505 were calculated by GraphPad Prism6 software.
The compounds described herein were tested using a cell-based cytotoxicity assay against neuronal stem cells in Mut6, which is a mouse glioblastoma model cell line.

Compound | EC50 [µM]
CCc1n(CC(=O)O[C@H]2C[C@@H](C)CC[C@@H]2C(C)C)c2ccccc2[n+]1C | 0.1 to 1
CCc1n(CC(=O)OC(C)(C)C)c2ccccc2[n+]1C | > 5
CCc1n(CC(=O)OC)c2ccccc2[n+]1C | > 5
CCc1n(CC(=O)Oc2ccccc2)c2ccccc2[n+]1C | > 5
CCc1n(CC(=O)OCc2ccccc2)c2ccccc2[n+]1C | > 5
CCc1n(CC(=O)O[C@H]2CC[C@@H](C)CC2)c2ccccc2[n+]1C | > 5
CCc1n(CC(=O)O[C@H]2CC[C@H](C)CC2)c2ccccc2[n+]1C | > 5
CCc1n(CC(=O)OCCOC)c2ccccc2[n+]1C | > 5
C#CCCOC(=O)Cn1c(CC)[n+](C)c2ccccc21 | > 5
COC(=O)Cn1c(C)nc2ccccc21 | > 5
CC(C)[C@@H]1CC[C@@H](C)CC1OC(=O)Cn1c(-c2ccc(OC(=O)CCCCC3SC[C@H]4NC(=O)N[C@@H]34)cc2)[n+](C)c2ccccc21 (some centres unmarked) | 1 to 5
C#CCOc1ccc(-c2n(CC(=O)OC3C[C@H](C)CC[C@H]3C(C)C)c3ccccc3[n+]2C)cc1N=[N+]=[N-] (some centres unmarked) | 0.1 to 1
C#CCN(CC(=O)Oc1ccc(-c2n(CC(=O)OC3C[C@H](C)CC[C@H]3C(C)C)c3ccccc3[n+]2C)cc1)Cc1ccc(C2(C(F)(F)F)N=N2)cc1 (some centres unmarked) | 1 to 5
CCc1n(CC(=O)OC2C[C@H](C)CC[C@H]2C(C)C)c2ccccc2[n+]1C (some centres unmarked) | < 0.1
CCc1n([C@H](C)C(=O)OC2C[C@H](C)CC[C@H]2C(C)C)c2ccccc2[n+]1C (some centres unmarked) | < 0.1
CCc1n([C@@H](C)C(=O)OC2C[C@H](C)CC[C@H]2C(C)C)c2ccccc2[n+]1C (some centres unmarked) | < 0.1
CCc1n([C@H](C)C(=O)OC2C[C@@H](C)CC[C@@H]2C(C)C)c2ccccc2[n+]1C (some centres unmarked) | < 0.1
CCc1n([C@@H](C(=O)OC2C[C@H](C)CC[C@H]2C(C)C)C(C)(C)C)c2ccccc2[n+]1C (some centres unmarked) | 0.1 to 1
CCc1n([C@@H](C(=O)OC2C[C@H](C)CC[C@H]2C(C)C)C2CC2)c2ccccc2[n+]1C (some centres unmarked) | < 0.1
CCc1n([C@@H](C(=O)OC2C[C@H](C)CC[C@H]2C(C)C)C2CCCC2)c2ccccc2[n+]1C (some centres unmarked) | < 0.1
CCc1n([C@H](Cc2ccccc2)C(=O)OC2C[C@H](C)CC[C@H]2C(C)C)c2ccccc2[n+]1C (some centres unmarked) | 0.1 to 1
CCc1n([C@H](Cc2ccc(C)cc2)C(=O)OC2C[C@H](C)CC[C@H]2C(C)C)c2ccccc2[n+]1C (some centres unmarked) | < 0.1
CCc1n([C@H](Cc2ccc(O)cc2)C(=O)OC2C[C@H](C)CC[C@H]2C(C)C)c2ccccc2[n+]1C (some centres unmarked) | 1 to 5
COc1ccc(-c2n([C@H](C)C(=O)OC3C[C@H](C)CC[C@H]3C(C)C)c3ccccc3[n+]2C)cc1 (some centres unmarked) | < 0.1
CC(C)[C@@H]1CC[C@@H](C)CC1OC(=O)[C@@H](C)n1c(-c2ccc(N(C)C)cc2)[n+](C)c2ccccc21 (some centres unmarked) | < 0.1

Compound | EC50 [µM]
CC(C)[C@@H]1CC[C@@H](C)CC1OC(=O)[C@@H](C)n1c(-c2ccc(C(F)(F)F)cc2)[n+](C)c2ccccc21 (some centres unmarked) | 0.1 to 1
COc1ccc(-c2n([C@@H](C(=O)OC3C[C@H](C)CC[C@H]3C(C)C)C3CC3)c3ccccc3[n+]2C)cc1 (some centres unmarked) | < 0.1
CC(C)[C@@H]1CC[C@@H](C)CC1OC(=O)[C@@H](C1CC1)n1c(-c2ccc(N(C)C)cc2)[n+](C)c2ccccc21 (some centres unmarked) | < 0.1
CC(C)[C@@H]1CC[C@@H](C)CC1OC(=O)[C@@H](C1CC1)n1c(-c2ccc(C(F)(F)F)cc2)[n+](C)c2ccccc21 (some centres unmarked) | 0.1 to 1
CCc1n(CC(=O)OC2C[C@H](C)CC[C@H]2C(C)C)c2ccc(Br)cc2[n+]1C (some centres unmarked) | 0.1 to 1
CCc1n(CC(=O)OC2C[C@H](C)CC[C@H]2C(C)C)c2cc(Br)ccc2[n+]1C (some centres unmarked) | 0.1 to 1
CCc1n(CC(=O)OC2C[C@H](C)CC[C@H]2C(C)C)c2ccc(Cl)cc2[n+]1C (some centres unmarked) | 0.1 to 1
CCc1n(CC(=O)OC2C[C@H](C)CC[C@H]2C(C)C)c2cc(Cl)ccc2[n+]1C (some centres unmarked) | 0.1 to 1
CCc1n(CC(=O)OC2C[C@H](C)CC[C@H]2C(C)C)c2ccc(F)cc2[n+]1C (some centres unmarked) | 0.1 to 1
CCc1n(CC(=O)OC2C[C@H](C)CC[C@H]2C(C)C)c2cc(F)ccc2[n+]1C (some centres unmarked) | < 0.1
CCc1n(CC(=O)OC2C[C@H](C)CC[C@H]2C(C)C)c2ccc(C(F)(F)F)cc2[n+]1C (some centres unmarked) | 1 to 5
CCc1n(CC(=O)OC2C[C@H](C)CC[C@H]2C(C)C)c2cc(C(F)(F)F)ccc2[n+]1C (some centres unmarked) | 1 to 5
CCc1n(CC(=O)OC2C[C@H](C)CC[C@H]2C(C)C)c2ccc(C#N)cc2[n+]1C (some centres unmarked) | 1 to 5
CCc1n(CC(=O)OC2C[C@H](C)CC[C@H]2C(C)C)c2cc(C#N)ccc2[n+]1C (some centres unmarked) | 1 to 5
CCc1n(CC(=O)OC2C[C@H](C)CC[C@H]2C(C)C)c2ccc([N+](=O)[O-])cc2[n+]1C (some centres unmarked) | 1 to 5
CCc1n(CC(=O)OC2C[C@H](C)CC[C@H]2C(C)C)c2cc([N+](=O)[O-])ccc2[n+]1C (some centres unmarked) | 1 to 5
CCN(CC)c1ccc(-c2n([C@H](C)C(=O)OC3C[C@H](C)CC[C@H]3C(C)C)c3ccccc3[n+]2C)cc1 (some centres unmarked) | < 0.1
CCN(CC)c1ccc(-c2n([C@@H](C(=O)OC3C[C@H](C)CC[C@H]3C(C)C)C3CC3)c3ccccc3[n+]2C)cc1 (some centres unmarked) | < 0.1
CC(C)[C@@H]1CC[C@@H](C)CC1OC(=O)[C@@H](C)n1c(-c2ccc(N(C)C)c(C(F)(F)F)c2)[n+](C)c2ccccc21 (some centres unmarked) | < 0.1
CC(C)[C@@H]1CC[C@@H](C)CC1OC(=O)[C@@H](C1CC1)n1c(-c2ccc(N(C)C)c(C(F)(F)F)c2)[n+](C)c2ccccc21 (some centres unmarked) | 0.1 to 1
Cc1cc(-c2n([C@H](C)C(=O)OC3C[C@H](C)CC[C@H]3C(C)C)c3ccccc3[n+]2C)ccc1N(C)C (some centres unmarked) | < 0.1
Cc1cc(-c2n([C@@H](C(=O)OC3C[C@H](C)CC[C@H]3C(C)C)C3CC3)c3ccccc3[n+]2C)ccc1N(C)C (some centres unmarked) | < 0.1
CC(C)[C@@H]1CC[C@@H](C)CC1OC(=O)[C@@H](C)n1c(-c2ccc(N(C3CC3)C3CC3)cc2)[n+](C)c2ccccc21 (some centres unmarked) | < 0.1
CCCCN(CCCC)c1ccc(-c2n([C@H](C)C(=O)OC3C[C@H](C)CC[C@H]3C(C)C)c3ccccc3[n+]2C)cc1 (some centres unmarked) | < 0.1
CC(C)[C@@H]1CC[C@@H](C)CC1OC(=O)[C@@H](C1CC1)n1c(-c2ccc(N(C3CC3)C3CC3)cc2)[n+](C)c2ccccc21 (some centres unmarked) | < 0.1

Compound | EC50 [µM]
CCCCN(CCCC)c1ccc(-c2n([C@@H](C(=O)OC3C[C@H](C)CC[C@H]3C(C)C)C3CC3)c3ccccc3[n+]2C)cc1 (some centres unmarked) | < 0.1
CCc1n(CC(=O)OC2C[C@H](C)CC[C@H]2C(C)C)c2ccncc2[n+]1C (some centres unmarked) | 0.1 to 1
CCc1n(CC(=O)OC2C[C@H](C)CC[C@H]2C(C)C)c2ncccc2[n+]1C (some centres unmarked) | 0.1 to 1
CCc1n(CC(=O)OC2C[C@H](C)CC[C@H]2C(C)C)c2cccnc2[n+]1C (some centres unmarked) | 0.1 to 1
CCc1n(CC(=O)OC2C[C@H](C)CC[C@H]2C(C)C)c2cc(OC)ccc2[n+]1C (some centres unmarked) | < 0.1
CCc1n(CC(=O)OC2C[C@H](C)CC[C@H]2C(C)C)c2ccc(OC)cc2[n+]1C (some centres unmarked) | < 0.1
CCc1n(CC(=O)OC2C[C@H](C)CC[C@H]2C(C)C)c2cc(C)ccc2[n+]1C (some centres unmarked) | < 0.1
CC[n+]1c(-c2ccc(N(C)C)cc2)n(CC(=O)OC2C[C@H](C)CC[C@H]2C(C)C)c2ccccc21 (some centres unmarked) | < 0.1
C#CC[n+]1c(-c2ccc(N(C)C)cc2)n(CC(=O)OC2C[C@H](C)CC[C@H]2C(C)C)c2ccccc21 (some centres unmarked) | < 0.1
C=CC[n+]1c(-c2ccc(N(C)C)cc2)n(CC(=O)OC2C[C@H](C)CC[C@H]2C(C)C)c2ccccc21 (some centres unmarked) | < 0.1
CC(C)[C@@H]1CC[C@@H](C)CC1OC(=O)Cn1c(-c2ccc(N(C)C)cc2)[n+](Cc2ccccc2)c2ccccc21 (some centres unmarked) | < 0.1
CC(C)[C@@H]1CC[C@@H](C)CC1OC(=O)Cn1c(-c2ccc(N(C)C)cc2)[n+](CC2CC2)c2ccccc21 (some centres unmarked) | < 0.1
CC(C)[C@@H]1CC[C@@H](C)CC1OC(=O)Cn1c(-c2ccc(Cl)cc2)[n+](C)c2ccccc21 (some centres unmarked) | 0.1 to 1
CC(C)[C@@H]1CC[C@@H](C)CC1OC(=O)Cn1c(-c2ccc(Cl)c(Cl)c2)[n+](C)c2ccccc21 (some centres unmarked) | 0.1 to 1
CC(C)[C@@H]1CC[C@@H](C)CC1OC(=O)Cn1c(-c2ccc(F)cc2)[n+](C)c2ccccc21 (some centres unmarked) | 0.1 to 1
CC(C)[C@@H]1CC[C@@H](C)CC1OC(=O)Cn1c(-c2ccc(C(F)(F)F)cc2)[n+](C)c2ccccc21 (some centres unmarked) | 0.1 to 1
CC(C)[C@@H]1CC[C@@H](C)CC1OC(=O)Cn1c(-c2ccc(Br)cc2)[n+](C)c2ccccc21 (some centres unmarked) | 0.1 to 1
CC(C)[C@@H]1CC[C@@H](C)CC1OC(=O)Cn1c(-c2cccc(Cl)c2)[n+](C)c2ccccc21 (some centres unmarked) | 0.1 to 1
CC(C)[C@@H]1CC[C@@H](C)CC1OC(=O)Cn1c(-c2ccc(Cl)c(C(F)(F)F)c2)[n+](C)c2ccccc21 (some centres unmarked) | 0.1 to 1
CC(C)[C@@H]1CC[C@@H](C)CC1OC(=O)Cn1c(-c2ccc(C(C)(C)C)cc2)[n+](C)c2ccccc21 (some centres unmarked) | < 0.1
CC(C)[C@@H]1CC[C@@H](C)CC1OC(=O)Cn1c(-c2ccc(OC(C)(C)C)cc2)[n+](C)c2ccccc21 (some centres unmarked) | < 0.1
CCc1n(CC(=O)OC23CC4CC(CC(C4)C2)C3)c2ccccc2[n+]1C | 1 to 5
CC(C)[C@@H]1CC[C@@H](C)CC1OC(=O)Cn1c(-c2ccc(N3CCCC3)cc2)[n+](C)c2ccccc21 (some centres unmarked) | < 0.1
CC(C)[C@@H]1CC[C@@H](C)CC1OC(=O)Cn1c(-c2ccc(N3CCCCC3)cc2)[n+](C)c2ccccc21 (some centres unmarked) | < 0.1
